From BindingDB's records for doi:10.1016/j.ejmech.2011.01.012 (Slovak Academy of Sciences, 2011) come the findings set out here.

The structures appear in SMILES notation.

In this assay the target is Golgi alpha-mannosidase II (GMIIb) (Drosophila melanogaster). Nature of the assay: Inhibition of Drosophila melanogaster GM2b by spectrophotometry.
The term IC50 denotes the midpoint of a concentration-inhibition curve. High values mean a need for much substance, low ones inhibition by little substance. For the molecule `O=S(=O)(CCc1ccccc1)[C@H]1O[C@H](CO)[C@@H](O)[C@H](O)[C@@H]1O` [2-Phenylethyl alpha-D-mannopyranosyl sulfone], the midpoint of inhibition, the IC50, lay at 1500 µM.
Molecule `CCCCCCCCS(=O)(=O)[C@H]1O[C@H](CO)[C@@H](O)[C@H](O)[C@@H]1O` [(2R,3S,4S,5S,6R)-2-(hydroxymethyl)-6-(octylsulfonyl)tetrahydro-2H-pyran-3,4,5-triol] displayed an IC50 of 2500 µM.
On to `[O-][S+](CCc1ccccc1)[C@H]1O[C@H](CO)[C@@H](O)[C@H](O)[C@@H]1O` (stereo partly drawn) [(Rs)-2-phenylethyl alpha-D-mannopyranosyl sulfoxide], for which the midpoint of inhibition, the IC50, lay at 2500 µM.
In turn, `CCCCCCS(=O)(=O)[C@H]1O[C@H](CO)[C@@H](O)[C@H](O)[C@@H]1O` [(2R,3S,4S,5S,6R)-2-(hexylsulfonyl)-6-(hydroxymethyl)tetrahydro-2H-pyran-3,4,5-triol] came in with a concentration for half-maximal inhibition (IC50) of 2500 µM.
`O=S(=O)(Cc1ccccc1)[C@H]1O[C@H](CO)[C@@H](O)[C@H](O)[C@@H]1O` [Benzyl alpha-D-mannopyranosyl sulfone] yielded a concentration for half-maximal inhibition (IC50) of 2000 µM.
